Structures can show the parent of a compound that is named as a salt.
Details: mouse, in vivo, 20 mg/kg

Q: For `CN(C)C(=O)COC(=O)Cc1ccc(OC(=O)c2ccc(NC(=N)N)cc2)cc1` [camostat mesylate], which “level in the plasma after oral delivery” value is on record?
A: no detectable level
